Measurements reported in publication PMC6466835 (ACS Medicinal Chemistry Letters, 2019).

Key:
[1] = system: supercoiled plasmid pBR322; experiment: DNA cleavage assay; type: biochemical
[2] = system: BxPC-3 pancreatic carcinoma cells; experiment: MTT cytotoxicity assay, BxPC-3; type: cell-based; conditions: BxPC-3 cells, L-1 versus D-1
[3] = Parallel artificial membrane permeation assay; type: in vitro ADME; conditions: incubation for 1 h, PBS pH 7.4
[4] = system: double-stranded oligodeoxynucleotide (dsDNA); experiment: ESI-MS analysis of DNA alkylation; type: biochemical; conditions: 50 μM compound, 2 μM dsDNA
[5] = 2 h at 37 °C, highest concentration 50 μM

| Structure (SMILES) | DNA cleavage activity ([1]; 18 h at 37 °C, 5 and 50 μM) | DNA cleavage activity [1, 5] | PAMPA permeation, in words [3] | DNA modifications detected by ESI-MS ([4]; 2 h at 37 °C) | DNA modifications detected by ESI-MS ([4]; 18 h at 37 °C) | DNA cleavage activity ([1]; 2 h at 37 °C, 5 and 50 μM) | also measured |
| --- | --- | --- | --- | --- | --- | --- | --- |
| CCCCN1CCC[C@@H](Cl)C1 [L-1] | more active than the racemate 1 |  |  |  |  |  | eudismic ratio [2]: ~40 |
| CCCCN1CCC[C@H](Cl)C1 [D-1] | inactive even after prolonged incubation |  |  |  |  |  |  |
| CCCCN1CC(Cl)CC(C)(C)C1 (stereo not shown) [Compound 2] |  | caused the conversion of supercoiled DNA into the OC form | barely detected in the acceptor compartment | additional peaks corresponding to 3-chloropiperidine–DNA adducts were detected | formation of adducts and of abasic lesions |  |  |
| CC1(C)CC(Cl)CN(Cc2ccccc2)C1 (stereo not shown) [Compound 3] |  | caused the conversion of supercoiled DNA into the OC form | barely detected in the acceptor compartment |  |  |  |  |
| CCCCN1CCCC(Cl)C1 (stereo not shown) [Compound 1] |  |  |  | exclusively the signal corresponding to the unreacted DNA substrate | formation of adducts and of abasic lesions | inactive |  |
| O=C(O)CCCc1ccc(N(CCCl)CCCl)cc1 [chlorambucil, reference compound] |  |  |  |  |  | inactive at all concentrations |  |
